Experimental data as given in US20230036854A1, “HETEROCYCLIC SPIRO-COMPOUNDS AS AM2 RECEPTOR INHIBITORS” (THE UNIVERSITY OF SHEFFIELD, priority 2018, published 2023).

Target: T1, AM2 receptor (1321N1 cells transfected with CALCRL+RAMP3) (Homo sapiens, UniProt O60896+Q16602)
T1 construct: host or cells: 1321N1 cells
Test: AM2 receptor inhibition, LANCE cAMP agonist-antagonist competition assay
Assay type: cell-based
Conditions: inhibition of AM induced cAMP activation, read-out: AM2 D2 protocol: pIC50 (converted)
In short: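 cAMP was quantified by LANCE TR-FRET after an EC50 challenge with adrenomedullin (15 min, room temperature) in CALCRL+RAMP3-transfected 1321N1 cells (2500/well) that had first been exposed to compound for 30 min. Buffer was pH 7.4 HBSS with HEPES and BSA. Forskolin defined 100% stimulation and vehicle 0%.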

T1 sequence (Q16602 23-461): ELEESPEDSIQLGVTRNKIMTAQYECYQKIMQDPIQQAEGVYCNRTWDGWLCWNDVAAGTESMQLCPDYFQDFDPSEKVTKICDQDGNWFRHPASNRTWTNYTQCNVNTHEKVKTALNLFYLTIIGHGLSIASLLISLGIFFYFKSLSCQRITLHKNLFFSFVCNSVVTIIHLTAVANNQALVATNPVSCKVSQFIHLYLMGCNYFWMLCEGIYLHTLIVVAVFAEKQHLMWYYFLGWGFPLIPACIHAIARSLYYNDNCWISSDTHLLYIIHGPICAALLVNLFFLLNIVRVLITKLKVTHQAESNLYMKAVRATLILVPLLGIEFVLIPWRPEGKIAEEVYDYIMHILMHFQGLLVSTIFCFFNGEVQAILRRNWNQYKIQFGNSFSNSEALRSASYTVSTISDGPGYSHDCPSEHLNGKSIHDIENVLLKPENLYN
T1 sequence (O60896 24-148): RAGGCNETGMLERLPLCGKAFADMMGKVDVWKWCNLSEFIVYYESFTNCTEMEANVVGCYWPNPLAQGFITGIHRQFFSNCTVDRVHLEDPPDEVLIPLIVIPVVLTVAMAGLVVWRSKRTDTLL

**Q.** For CCC1(C(=O)N(CC(=O)Nc2ccc3c(c2)C[C@@]2(C3)C(=O)Nc3ncccc32)Cc2ccccc2CNC)CCN(C(=O)CN2CCC(F)(F)CC2)CC1 [Example 95, (R)-1-(2-(4,4-Difluoropiperidin-1-yl)acetyl)-4-ethyl-N-(2-((methylamino)methyl)benzyl)-N-(2-oxo-2-((2′-oxo-1,1′,2′,3-tetrahydrospiro[indene-2,3′-pyrrolo[2,3-b]pyridin]-5-yl)amino)ethyl)piperidine-4-carboxamide], which IC50 is on record?
**A.** Its IC50 is 12.6 nM.

**Q.** Which IC50 does the source give for CCC1(C(=O)N(CC(=O)Nc2ccc3c(c2)C[C@@]2(C3)C(=O)Nc3ncccc32)Cc2ccccc2CNC)CCN(C(=O)COCCOCCOCCOCCOC)CC1 [Example 96, (R)-4-Ethyl-1-(2,5,8,11,14-pentaoxahexadecan-16-oyl)-N-(2-((methylamino)methyl)benzyl)-N-(2-oxo-2-((2′-oxo-1,1′,2′,3-tetrahydrospiro[indene-2,3′-pyrrolo[2,3-b]pyridin]-5-yl)amino)ethyl)piperidine-4-carboxamide] here?
**A.** The IC50 was 24.5 nM.

**Q.** With CCC1(C(=O)N(CC(=O)Nc2ccc3c(c2)C[C@@]2(C3)C(=O)Nc3ncccc32)Cc2ccccc2CNC)CCN(C(=O)COCCOCCOCCOCCOCCOCCOC)CC1 [Example 97, (R)-1-(2,5,8,11,14,17,20-Heptaoxadocosan-22-oyl)-4-ethyl-N-(2-((methylamino)methyl)benzyl)-N-(2-oxo-2-((2′-oxo-1,1′,2′,3-tetrahydrospiro[indene-2,3′-pyrrolo[2,3-b]pyridin]-5-yl)amino)ethyl)piperidine-4-carboxamide] as the compound, how does the IC50 read?
**A.** The IC50 was 8.71 nM.

**Q.** With CCC1(C(=O)N(CC(=O)Nc2ccc3c(c2)C[C@@]2(C3)C(=O)Nc3ncccc32)Cc2ccccc2CNC)CCN(C(=O)C(C)(C)C(F)(F)F)CC1 [Example 98, (R)-4-Ethyl-N-(2-((methylamino)methyl)benzyl)-N-(2-oxo-2-((2′-oxo-1,1′,2′,3-tetrahydrospiro[indene-2,3′-pyrrolo[2,3-b]pyridin]-5-yl)amino)ethyl)-1-(3,3,3-trifluoro-2,2-dimethylpropanoyl)piperidine-4-carboxamide] as the compound, how does the IC50 read?
**A.** Its IC50 is 61.7 nM.

**Q.** How did the IC50 turn out when CCC1(C(=O)N(CC(=O)Nc2ccc3c(c2)C[C@@]2(C3)C(=O)Nc3ncccc32)Cc2ccccc2CNC)CCN(C(=O)N(C)C)CC1 [Example 99, (R)-4-Ethyl-N1, N1-dimethyl-N4-(2-((methylamino)methyl)benzyl)-N4-(2-oxo-2-((2′-oxo-1,1′,2′,3-tetrahydrospiro[indene-2,3′-pyrrolo[2,3-b]pyridin]-5-yl)amino)ethyl)piperidine-1,4-dicarboxamide] was run?
**A.** The IC50 was 1.45 nM.

**Q.** CCC1(C(=O)N(CC(=O)Nc2ccc3c(c2)C[C@@]2(C3)C(=O)Nc3ncccc32)Cc2ccccc2CNC)CCN(C(=O)NC)CC1 [Example 100] was tested. Which IC50 did it give?
**A.** Its IC50 is 4.07 nM.

**Q.** With CCC1(C(=O)N(CC(=O)Nc2ccc3c(c2)C[C@@]2(C3)C(=O)Nc3ncccc32)Cc2ccccc2CNC)CCN(C(=O)NC(C)C)CC1 [Example 101, (R)-4-Ethyl-N1-isopropyl-N4-(2-((methylamino)methyl)benzyl)-N4-(2-oxo-2-((2′-oxo-1,1′,2′,3-tetrahydrospiro[indene-2,3′-pyrrolo[2,3-b]pyridin]-5-yl)amino)ethyl)piperidine-1,4-dicarboxamide] as the compound, how does the IC50 read?
**A.** The IC50 was 1.41 nM.

**Q.** Which IC50 does the source give for CCC1(C(=O)N(CC(=O)Nc2ccc3c(c2)C[C@@]2(C3)C(=O)Nc3ncccc32)Cc2ccccc2CNC)CCN(C(=O)N2CCCC2)CC1 [Example 102, (R)-4-Ethyl-N-(2-((methylamino)methyl)benzyl)-N-(2-oxo-2-((2′-oxo-1,1′,2′,3-tetrahydrospiro[indene-2,3′-pyrrolo[2,3-b]pyridin]-5-yl)amino)ethyl)-1-(pyrrolidine-1-carbonyl)piperidine-4-carboxamide] here?
**A.** The IC50 was 6.92 nM.

**Q.** How did the IC50 turn out when CCC1(C(=O)N(CC(=O)Nc2ccc3c(c2)C[C@@]2(C3)C(=O)Nc3ncccc32)Cc2ccccc2CNC)CCN(C(=O)N2CCOCC2)CC1 [Example 103, (R)-4-Ethyl-N-(2-((methylamino)methyl)benzyl)-1-(morpholine-4-carbonyl)-N-(2-oxo-2-((2′-oxo-1,1′,2′,3-tetrahydrospiro[indene-2,3′-pyrrolo[2,3-b]pyridin]-5-yl)amino)ethyl)piperidine-4-carboxamide] was run?
**A.** The IC50 was 2.19 nM.

**Q.** With CCC1(C(=O)N(CC(=O)Nc2ccc3c(c2)C[C@@]2(C3)C(=O)Nc3ncccc32)Cc2ccccc2CNC)CCN(C(=O)N2CCCCC2)CC1 [Example 104, (R)-4-Ethyl-N-(2-((methylamino)methyl)benzyl)-N-(2-oxo-2-((2′-oxo-1,1′,2′,3-tetrahydrospiro[indene-2,3′-pyrrolo[2,3-b]pyridin]-5-yl)amino)ethyl)-1-(piperidine-1-carbonyl) piperidine-4-carboxamide] as the compound, how does the IC50 read?
**A.** The IC50 was 107 nM.

**Q.** With CCC1(C(=O)N(CC(=O)Nc2ccc3c(c2)C[C@@]2(C3)C(=O)Nc3ncccc32)Cc2ccccc2CNC)CCN(C(=O)NC23CC(C2)C3)CC1 [Example 105] as the compound, how does the IC50 read?
**A.** Its IC50 is 50.1 nM.

**Q.** CCC1(C(=O)N(CC(=O)Nc2ccc3c(c2)C[C@@]2(C3)C(=O)Nc3ncccc32)Cc2ccccc2CNC)CCN(C(=O)N2CCC2)CC1 [Example 106, (R)-1-(Azetidine-1-carbonyl)-4-ethyl-N-(2-((methylamino)methyl)benzyl)-N-(2-oxo-2-((2′-oxo-1,1′,2′,3-tetrahydrospiro[indene-2,3′-pyrrolo[2,3-b]pyridin]-5-yl)amino)ethyl)piperidine-4-carboxamide] was tested. Which IC50 did it give?
**A.** Its IC50 is 11.7 nM.

**Q.** CCC1(C(=O)N(CC(=O)Nc2ccc3c(c2)C[C@@]2(C3)C(=O)Nc3ncccc32)Cc2ccccc2CNC)CCN(C(=O)N2CCC(F)(F)CC2)CC1 [Example 107, (R)-1-(4,4-Difluoropiperidine-1-carbonyl)-4-ethyl-N-(2-((methylamino)methyl)benzyl)-N-(2-oxo-2-((2′-oxo-1,1′,2′,3-tetrahydrospiro[indene-2,3′-pyrrolo[2,3-b]pyridin]-5-yl)amino)ethyl)piperidine-4-carboxamide] was tested. Which IC50 did it give?
**A.** The IC50 was 57.5 nM.

**Q.** For CCC1(C(=O)N(CC(=O)Nc2ccc3c(c2)C[C@@]2(C3)C(=O)Nc3ncccc32)Cc2ccccc2CNC)CCN(C(=O)N2CCC(F)(F)C2)CC1 [Example 108, (R)-1-(3,3-Difluoropyrrolidine-1-carbonyl)-4-ethyl-N-(2-((methylamino)methyl)benzyl)-N-(2-oxo-2-((2′-oxo-1,1′,2′,3-tetrahydrospiro[indene-2,3′-pyrrolo[2,3-b]pyridin]-5-yl)amino)ethyl)piperidine-4-carboxamide], which IC50 is on record?
**A.** The IC50 was 24 nM.

**Q.** CCC1(C(=O)N(CC(=O)Nc2ccc3c(c2)C[C@@]2(C3)C(=O)Nc3ncccc32)Cc2ccccc2CNC)CCN(C(=O)N2CC(F)(F)C2)CC1 [Example 109, (R)-1-(3,3-Difluoroazetidine-1-carbonyl)-4-ethyl-N-(2-((methylamino)methyl)benzyl)-N-(2-oxo-2-((2′-oxo-1,1′,2′,3-tetrahydrospiro[indene-2,3′-pyrrolo[2,3-b]pyridin]-5-yl)amino)ethyl)piperidine-4-carboxamide] was tested. Which IC50 did it give?
**A.** Its IC50 is 7940 nM.

**Q.** CCC1(C(=O)N(CC(=O)Nc2ccc3c(c2)C[C@@]2(C3)C(=O)Nc3ncccc32)Cc2ccccc2CNC)CCN(C(=O)N2CCC(C(F)(F)F)CC2)CC1 [Example 110, (R)-4-Ethyl-N-(2-((methylamino)methyl)benzyl)-N-(2-oxo-2-((2′-oxo-1,1′,2′,3-tetrahydrospiro[indene-2,3′-pyrrolo[2,3-b]pyridin]-5-yl)amino)ethyl)-1-(4-(trifluoromethyl)piperidine-1-carbonyl)piperidine-4-carboxamide] was tested. Which IC50 did it give?
**A.** Its IC50 is 93.3 nM.

**Q.** CCC1(C(=O)N(CC(=O)Nc2ccc3c(c2)C[C@@]2(C3)C(=O)Nc3ncccc32)Cc2ccccc2CNC)CCN(C(=O)N2CC(F)C2)CC1 [Example 111, (R)-4-Ethyl-1-(3-fluoroazetidine-1-carbonyl)-N-(2-((methylamino)methyl)benzyl)-N-(2-oxo-2-((2′-oxo-1,1′,2′,3-tetrahydrospiro[indene-2,3′-pyrrolo[2,3-b]pyridin]-5-yl)amino)ethyl)piperidine-4-carboxamide] was tested. Which IC50 did it give?
**A.** Its IC50 is 15.5 nM.

**Q.** Which IC50 does the source give for CCC1(C(=O)N(CC(=O)Nc2ccc3c(c2)C[C@@]2(C3)C(=O)Nc3ncccc32)Cc2ccccc2CNC)CCN(C(=O)N2CC(C(F)(F)F)C2)CC1 [Example 112, (R)-4-Ethyl-N-(2-((methylamino)methyl)benzyl)-N-(2-oxo-2-((2′-oxo-1,1′,2′,3-tetrahydrospiro[indene-2,3′-pyrrolo[2,3-b]pyridin]-5-yl)amino)ethyl)-1-(3-(trifluoromethyl)azetidine-1-carbonyl)piperidine-4-carboxamide] here?
**A.** The IC50 was 23.4 nM.

**Q.** How did the IC50 turn out when CCC1(C(=O)N(CC(=O)Nc2ccc3c(c2)C[C@@]2(C3)C(=O)Nc3ncccc32)Cc2ccccc2CNC)CCN(C(=O)NCC(F)(F)F)CC1 [Example 113, (R)-4-Ethyl-N4-(2-((methylamino)methyl)benzyl)-N4-(2-oxo-2-((2′-oxo-1,1′,2′,3-tetrahydrospiro[indene-2,3′-pyrrolo[2,3-b]pyridin]-5-yl)amino)ethyl)-N1-(2,2,2-trifluoroethyl)piperidine-1,4-dicarboxamide] was run?
**A.** Its IC50 is 4.27 nM.

**Q.** With CCC1(C(=O)N(CC(=O)Nc2ccc3c(c2)C[C@@]2(C3)C(=O)Nc3ncccc32)Cc2ccccc2CNC)CCN(C(=O)OC(C)C)CC1 [Example 114, (R)-Isopropyl 4-ethyl-4-((2-((methylamino)methyl)benzyl)(2-oxo-2-((2′-oxo-1,1′,2′,3-tetrahydrospiro[indene-2,3′-pyrrolo[2,3-b]pyridin]-5-yl)amino)ethyl)carbamoyl)piperidine-1-carboxylate] as the compound, how does the IC50 read?
**A.** Its IC50 is 69.2 nM.

**Q.** How did the IC50 turn out when CCOC(=O)N1CCC(CC)(C(=O)N(CC(=O)Nc2ccc3c(c2)C[C@@]2(C3)C(=O)Nc3ncccc32)Cc2ccccc2CNC)CC1 [Example 115, (R)-Ethyl 4-ethyl-4-((2-((methylamino)methyl)benzyl)(2-oxo-2-((2′-oxo-1,1′,2′,3-tetrahydrospiro[indene-2,3′-pyrrolo[2,3-b]pyridin]-5-yl)amino)ethyl)carbamoyl)piperidine-1-carboxylate] was run?
**A.** The IC50 was 24.5 nM.
